# Experimental data published in PubChem BioAssay (NCI).
#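 Compound exposure: 48 hours, 5 concentrations, 96-well plates. Abbreviation: GI50, concentration required for 50% inhibition of growth. TGI: concentration producing complete growth inhibition.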
# Tests used:
# Experiment in all cases: NCI tumour cell line growth inhibition, 48 h
# DU-145 prostate = test system: DU-145 prostate
# RPMI-8226 leukemia = test system: RPMI-8226 leukemia
# OVCAR-8 ovarian = test system: OVCAR-8 ovarian
# UACC-62 melanoma = test system: UACC-62 melanoma
# SR leukemia = test system: SR leukemia
# K-562 leukemia = test system: K-562 leukemia
# MOLT-4 leukemia = test system: MOLT-4 leukemia
# HS 578T breast = test system: HS 578T breast
# BT-549 breast = test system: BT-549 breast
# NCI-H522 lung = test system: NCI-H522 lung
# HOP-92 NSCLC = test system: HOP-92 NSCLC
# HT29 colon = test system: HT29 colon
# 786-0 renal = test system: 786-0 renal
# RXF 393 renal = test system: RXF 393 renal
# HCT-15 colon = test system: HCT-15 colon
# NCI-H23 lung = test system: NCI-H23 lung
# NCI/ADR-RES ovarian = test system: NCI/ADR-RES ovarian
# NCI-H226 lung = test system: NCI-H226 lung
# EKVX NSCLC = test system: EKVX NSCLC
# UACC-257 melanoma = test system: UACC-257 melanoma
# SN12C renal = test system: SN12C renal
# KM12 colon = test system: KM12 colon
# A498 renal = test system: A498 renal
# PC-3 prostate = test system: PC-3 prostate
# CCRF-CEM leukemia = test system: CCRF-CEM leukemia
# IGROV1 ovarian = test system: IGROV1 ovarian
# CAKI-1 renal = test system: CAKI-1 renal
# T-47D breast = test system: T-47D breast
# SK-MEL-2 melanoma = test system: SK-MEL-2 melanoma
# COLO 205 colon = test system: COLO 205 colon
compound,measurement,setting,value
COc1ccc(/C=C2\CS(=O)(=O)C/C(=C\c3ccc(OC)cc3)C2=O)cc1,GI50,DU-145 prostate,2000 nM
same,TGI,DU-145 prostate,5410 nM
same,GI50,RPMI-8226 leukemia,567 nM
same,TGI,RPMI-8226 leukemia,4890 nM
same,GI50,OVCAR-8 ovarian,1210 nM
same,TGI,OVCAR-8 ovarian,6680 nM
same,GI50,UACC-62 melanoma,1440 nM
same,TGI,UACC-62 melanoma,2780 nM
same,GI50,SR leukemia,182 nM
same,TGI,SR leukemia,423 nM
same,GI50,K-562 leukemia,1160 nM
same,GI50,MOLT-4 leukemia,2220 nM
same,TGI,MOLT-4 leukemia,> 22200 nM
same,GI50,HS 578T breast,3070 nM
same,TGI,HS 578T breast,> 31300 nM
same,GI50,BT-549 breast,2170 nM
same,TGI,BT-549 breast,5280 nM
same,GI50,NCI-H522 lung,1150 nM
same,TGI,NCI-H522 lung,3020 nM
same,GI50,HOP-92 NSCLC,8740 nM
same,TGI,HOP-92 NSCLC,69000 nM
same,GI50,HT29 colon,999 nM
same,GI50,786-0 renal,1750 nM
same,TGI,786-0 renal,3210 nM
same,GI50,RXF 393 renal,1480 nM
same,TGI,RXF 393 renal,2900 nM
same,GI50,HCT-15 colon,1840 nM
same,TGI,HCT-15 colon,4820 nM
same,GI50,NCI-H23 lung,1640 nM
same,TGI,NCI-H23 lung,3320 nM
same,GI50,NCI/ADR-RES ovarian,2060 nM
same,TGI,NCI/ADR-RES ovarian,4870 nM
same,GI50,NCI-H226 lung,16800 nM
same,TGI,NCI-H226 lung,> 100000 nM
same,GI50,EKVX NSCLC,3070 nM
same,TGI,EKVX NSCLC,> 36800 nM
same,GI50,UACC-257 melanoma,1670 nM
same,TGI,UACC-257 melanoma,3630 nM
same,GI50,SN12C renal,1780 nM
same,TGI,SN12C renal,4040 nM
same,GI50,KM12 colon,676 nM
same,TGI,KM12 colon,1890 nM
same,GI50,A498 renal,1760 nM
same,TGI,A498 renal,3670 nM
same,GI50,PC-3 prostate,2090 nM
same,TGI,PC-3 prostate,18100 nM
same,GI50,CCRF-CEM leukemia,1350 nM
same,GI50,IGROV1 ovarian,1750 nM
same,TGI,IGROV1 ovarian,5710 nM
same,GI50,CAKI-1 renal,2160 nM
same,TGI,CAKI-1 renal,6100 nM
same,GI50,T-47D breast,2910 nM
same,TGI,T-47D breast,28400 nM
same,GI50,SK-MEL-2 melanoma,3090 nM
same,TGI,SK-MEL-2 melanoma,> 20900 nM
same,GI50,COLO 205 colon,1520 nM
